In brackets after ≈: the same amount, converted by molar mass. Read-outs that look alike come from different tables or passages of the source. Some results are limits rather than exact numbers.

The subject of data set [1] is glioblastoma cell line SF-268. The data set is described as follows: MTA cytotoxicity assay, glioblastoma cells. The class given is cell-based. The settings on record: Homo sapiens, SF-268, 96 h, read-out: Cytotoxicity SF-268. The procedure:
(§1) The results were plotted and the IC50 then measured.
(§2) The coralyne analog 7c was tested for its effectiveness against glioblastoma cells. The assay used was similar to that described above for the RPMI-8402 cell line. The results are shown in table 2 below which compares the effect of Compound 7c against the leukemia cell line (RPMI 8402), epidermal carncinoma (KB3-1) and glioblastoma (SF-268): Table 2

Data set [2] concerns human epidermoid carcinoma KB 3-1 cell line. The data set is described as follows: MTA cytotoxicity assay, epidermoid carcinoma cells. The class given is cell-based. Particulars: KB 3-1, 96 h, read-out: Cytotoxicity KB3-1. Here is the method: as §1, §2
The subject of data set [3] is Human lymphoblast RPMI 8402 cells. Briefly: MTT-microtiter plate tetrazolinium cytotoxicity assay (MTA). The format is cell-based. Particulars: Homo sapiens, RPMI 8402, 96 h.
From the text: as §1

Data set [4] concerns yeast cells expressing functional yeast topoisomerase I. Briefly: Yeast cytotoxicity assay, strain expressing wild-type yeast topo I. The class given is cell-based, S. cerevisiae. The settings on record: plates with 1 µM drug (camptothecin 0.5 µM), 3 days at 30°C. An excerpt:
It has been established that yeast can survive when topoisomerase I function is obliterated, and that the topoisomerase I poisons only kill cells having a functional topoisomerase I (Bjornsti et al. Cancer Res. 49:6318-6323 (1989)).
The topoisomerase I-specific in vivo cytotoxicity assay was adapted from Knab et al. (Knab et al., J. Biol. Chem. 268:22322-22330 (1993)). In this system, various topo I genes cloned into the single copy yeast plasmid vector, YCpGAL1 (Knab et al., J. Biol. Chem. 268:22322-22330 (1993)), are expressed under the control of the GAL1 promoter in the JN2-134 strain of S. cerevisiae (MATa, rad52::LEU2, trp1, ade2-1,his7, ura3-52, isel, top1-1, leu2) (Bjornsti et al., Cancer Res. 49:6318-6323 (1989)). The topo I constructs in the vector are, respectively, the wild-type yeast topo I (YCpGAL-ScTOP1), a non-functional yeast topo I where the active site tyrosine-727 is mutated to a phenylalanine (YCpGAL1-Sctop1Y727F) (Knab et al., J. Biol. Chem. 268:22322-22330 (1993)), and the wild type human topoisomerase I (YCpGAL-hTOP1) (Bjornsti et al., Cancer Res. 49:6318-6323 (1989)). To qualitatively test the cytotoxicity and the topo I specificity of the drugs, yeast cells containing the specific plasmid were serially diluted (5-fold) and were grown in dropout medium supplemented with uracil and 2% galactose In addition, the plates contained: A: Control, no drug in the plate; B: Camptothecin (CPT), 0.5 µM; C: Coralyne, 1 µM; D: Methylenedioxy-dihydro-demethyl-coralyne (MDD-Coralyne), 1 µM, and E: Nitidine, 1 µM. The plates were grown for 3 days at 30°C to assess the lethal effect of the different compounds on the various topoisomerase I enzymes expressed in S. cerevisiae.and the drug being tested.

Data set [5] deals with calf thymus topoisomerase II. The data set is described as follows: Topo II cleavage assay (plasmid YEpG DNA). The format is biochemical. Particulars: concentration relative to VM-26 = 1 producing the same cleavage on the plasmid DNA. An excerpt: The plasmid pET11a and the E. coli strain BL21(DE3) used for enzyme expression were purchased from Novagen. IPTG was purchased from Sigma. The ECL system used for the Western blotting analysis of bacterial lysates was from Amersham (UK). All the restriction enzymes and Vent polymerase were from New England Biolabs. Mammalian topoisomerase II was isolated from calf thymus glands according to the published procedure (Halligan et al., J. Biol. Chem. 260:2475-2482 (1985)). The single copy yeast plasmids YCpGAL1 expressing various topoisomerase I genes in JN2-134 yeast strain were a kind gift of Dr. M-A. Bjornsti (Thomas Jefferson University, Philadelphia, PA). All bacterial and yeast media were from Difco (Detroit, MI), while cell culture media were purchased from Gibco-BRL (Gaithersburg, MD).
(§3) Cleavage assays for the recombinant topoisomerases I and calf thymus topoisomerases I and II were done as described (Liu et al., J. Biol. Chem. 258:15365-15370 (1983)). The plasmid YEpG DNA used for the cleavage assays was prepared and labeled at its 3'-end using the published procedures.

For data set [6], the target named is T1, recombinant CPT-K5 topoisomerase I (Homo sapiens, UniProt P11387, D533G).
T1 construct: 15 amino acid vector-derived fusion (pET-11a leader); made in house; host or cells: E. coli BL21(DE3)
T1 sequence (P11387 1-765 D533G): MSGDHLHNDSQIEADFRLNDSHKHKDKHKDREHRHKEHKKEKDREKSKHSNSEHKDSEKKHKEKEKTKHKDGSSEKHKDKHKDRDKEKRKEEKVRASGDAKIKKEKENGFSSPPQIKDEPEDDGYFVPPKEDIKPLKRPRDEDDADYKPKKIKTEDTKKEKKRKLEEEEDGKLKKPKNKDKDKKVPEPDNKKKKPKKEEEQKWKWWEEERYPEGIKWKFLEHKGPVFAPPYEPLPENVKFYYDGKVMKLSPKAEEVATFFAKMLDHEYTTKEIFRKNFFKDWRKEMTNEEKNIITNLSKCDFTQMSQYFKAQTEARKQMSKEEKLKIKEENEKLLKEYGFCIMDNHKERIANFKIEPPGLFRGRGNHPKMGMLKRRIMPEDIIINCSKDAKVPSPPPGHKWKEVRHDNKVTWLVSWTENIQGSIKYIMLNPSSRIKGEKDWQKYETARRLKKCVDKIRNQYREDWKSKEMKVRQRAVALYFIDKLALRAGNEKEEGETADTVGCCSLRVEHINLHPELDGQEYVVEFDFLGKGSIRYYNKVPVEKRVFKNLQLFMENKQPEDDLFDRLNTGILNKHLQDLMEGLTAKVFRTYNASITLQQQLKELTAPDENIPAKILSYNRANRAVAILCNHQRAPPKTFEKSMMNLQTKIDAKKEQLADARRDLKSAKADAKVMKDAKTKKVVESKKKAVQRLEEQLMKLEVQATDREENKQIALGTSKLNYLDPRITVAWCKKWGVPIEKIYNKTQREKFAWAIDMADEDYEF
Briefly: Cleavage assay with camptothecin-resistant mutant topo I. The format is biochemical. The settings on record: relative to wildtype human topoisomerase I. Here is the method: as §3

For the molecule `CC[C@@]1(O)C(=O)OCc2c1cc1n(c2=O)Cc2cc3ccccc3nc2-1` [CPT, camptothecin, reference compound], the IC50 in data set [1] worked out at 5 ng/mL (≈ 0.0144 µM); in data set [2] it was 4 ng/mL (≈ 0.0115 µM); in data set [3] (read-out: Cytotoxicity IC50 RPMI), 4 nM; in data set [3] (read-out: Cytotoxicity RPMI 8402), 3 ng/mL. In data set [4], the “cytotoxicity against yeast cells expressing functional yeast topoisomerase I (in words)” value is recorded as “quite sensitive”. Besides, the “Topo II-mediated DNA cleavage (REC, Relative Effective Concentration)” value in data set [5] is greater than 1000. Moreover, the “resistance of recombinant CPT-K5 topoisomerase I to the drug” value in data set [6] is “over 1000 fold”.

The values are drawn from patent EP0888346B1, “CORALYNE ANALOGS AS TOPOISOMERASE INHIBITORS” (RUTGERS, THE STATE UNIVERSITY OF NEW JERSEY, priority 1996, dated 1997).
